Results published in patent US20240368145A1, “METHODS FOR TREATING CANCER” (IMMUNIC AG, priority 2021, published 2024).

How the values were obtained:
Assay type in all cases: cell-based
IL-17F = test: Cytokine assay, human PBMC stimulated with PHA: IL-17F; conditions: PHA-activated, 48 hours, read-out: IL-17F inhibition (IC50 range)
Description: Peripheral blood mononuclear cells (PBMC) from healthy human donors were purified using Accuspin™ System-Histopaque-1077 (Sigma) according to the protocol recommended by the manufacturer. Purified PBMC were then washed twice with phosphate-buffered saline (PBS) and resuspended in RPMI1640 culture medium supplemented with 10% dialyzed heat inactivated fetal calf serum, 1.5 mM L-glutamine, 100 U penicillin/mL and […] streptomycin/mL (all from PAN Biotech, Aidenbach, Germany). For stimulation, PBMC were seeded at 1×10^5 cells/well, activated with 2 gg/mL phytohaemagglutinin (PHA, Sigma) and incubated with the test compounds for 48 hours. IL-17A, IL-17F and INFγ were then determined in the culture supernatant using a Luminex BioPlex system, following the manufacturer's instructions (BioRad, Munich, Germany). To determine the IC50, compounds were titrated semilogarithmically.
Cytokines were determined in the aforementioned culture supernatant using the following methods: IL-17A was measured using the human homodimer IL-17A ELISA Ready Set Go Kit from cBioscience (Frankfurt, Germany); IL-17F using the human IL-17F ELI-Pair from Holzel Diagnostica GmbH (K51n, Germany); and IFNγ using the OptEIA human IFN-g ELISA from BD Bioscience (Heidelberg, Germany), all following the manufacturer's instructions.

[1] = test system: prostate cancer cell line PC3; test: Oncolead sulforhodamin B growth inhibition, PC3; conditions: sulforhodamin B assay; 72 and 120 h treatment; read-out: GI50 range PC3
Description: (§1) Cell growth was assessed by measuring protein content using sulforhodamin B. Growth inhibition was calculated by (TCMD−T0)/TNCT72h−T0)*100% with TCMD is the tumor growth at 72 h with the respective compound concentration. To is the protein content of the cell line before treatment and TNCT72h is the tumor growth of the DMSO control.

[2] = test system: prostate cancer cell line VCaP; test: Oncolead sulforhodamin B growth inhibition, VCaP; conditions: for GI50: Homo sapiens, VCaP, sulforhodamin B assay, 72 and 120 h treatment, read-out: GI50 range VCAP; for effect on growth of VCaP: highest dose (30 μM)
Description: as §1

ATAD2/ANCCA mRNA = test: Expression of AR target genes (qRT-PCR) in 22Rv1: ATAD2/ANCCA; conditions: 22Rv1, 1 μM, 48h; relative to vehicle control (DMSO)
Description: The prostate cancer cell line 22Rv1 was treated for 48h with 1 μM Example compound 1, 1/1, 2/1, 2/2, 2/3, 2/4, 2/5, 2/6, 2/7, 2/8, 2/9 and 2/10 and reference compounds SR2211 and XY018. RNA was extracted using the RNA isolation kit XS (Macherey-Nagel) and following the manufacture's manual. RNA quantity was measured with the Nanodrop before reverse transcription using Superscript II (Invitrogen #100004925). For the quantitative real-time PCR with SYBR-Green (Qiagen #204074), the following primers were used:
qRT-PCR was performed using SYBR-Green (Qiagen #204074) reagents in a PCR cycler (Gorbett Research) Rotor Gene RG3000 with the following program: denaturation for 5′ at 95° C.; 40 cycles of 20″ at 95° C. and 15″ at 60° C.″ and at the end of the last cycle, the melting temperature of the products was determined by gradually increasing from 60° C. to 99° C. CT values from all samples were normalized to reference (housekeeping) genes using the mean CT value of the GAPDH and YWHAZ (reference genes). Next the values are put relative to the untreated control (vehicle/DMSO).

RORγt = target: T1, RORγt (Homo sapiens, UniProt P51449); test: RORγt inhibition, Indigo Biosciences Human RAR-related Orphan Receptor, Gamma Reporter Assay System; conditions: luciferase reporter cells, 22-24 h incubation; read-out: IC50 range, RORγt assay
T1 sequence (P51449 269-518 limits assumed): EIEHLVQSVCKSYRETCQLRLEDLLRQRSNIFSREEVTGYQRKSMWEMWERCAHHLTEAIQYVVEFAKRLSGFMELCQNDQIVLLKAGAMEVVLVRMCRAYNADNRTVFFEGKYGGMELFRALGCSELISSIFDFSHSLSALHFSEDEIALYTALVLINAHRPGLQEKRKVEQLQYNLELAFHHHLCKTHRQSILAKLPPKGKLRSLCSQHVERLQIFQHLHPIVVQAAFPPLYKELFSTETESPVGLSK
Description: The in vitro inhibition of RORγt was measured using Indigo Biosciences Human RAR-related Orphan Receptor, Gamma Reporter Assay System (Product #11304001-32) as described in the technical manual. In brief, 200 μL of Reporter Cells is dispensed into wells of the assay plate and preincubated for 4-6 h. Following the pre-incubation period, culture media are discarded and 200 μL/well of the prepared 1×-concentration treatment media are added. Following 22-24 h incubation, treatment media are discarded and Luciferase Detection Reagent is added. The intensity of light emission (in units of ‘Relative Light Units’; RLU) from each assay well is quantified using a plate-reading luminometer. Average values of RLU were determined for each treatment concentration. Non-linear regression analyses were performed and IC50 values determined using GraphPad Prism software. Provided inverse-agonists ursolic acid served as positive control.

IM9 (MM) = test: Oncotest inhibition of viability, IM9; conditions: MM cell line IM9; read-out: IC50 range
[3] = Viability and differentiation in different solid cancer cell lines; conditions: range over HEK293, A2780, MT3, MCF7, NCIH460, A-375, HCT15, HT1080
[4] = test system: more than 75 representative cancer cell lines; test: Oncolead profiling in a panel of more than 75 cancer cell lines; conditions: FIG. 1 and FIG. 2
Description: The compound of Example 1 and Example 1/1 was tested in vitro in more than 75 representative cancer cell lines at Oncolead (www.oncolead.com) according their standard procedure. The obtained data is summarised in FIG. 1 (Example 1) and FIG. 2 (Example 1/1).

AML cell line HL-60 = test: CellTiter-Blue proliferation assay, HL-60; conditions: Homo sapiens, geometric mean relative IC50, 72 hours, read-out: IC50 range for cell line HL-60
Description: (§2) Aim of this study was to evaluate compounds of Example 1, 1/1, 2/2, 2/5 and 2/6 in a proliferation assays. The 5 test compounds were tested in a CellTiter-Blue® based proliferation assay in three AML cell lines (HL-60, THP-1 and MOLM-13). The compounds were tested at 10 concentrations in half-log increments (highest concentration 30 μM or 100 μM) in duplicates. The incubation period with the applied compounds was fixed to 72 hours.

AML cell line MOLM-13 = test: CellTiter-Blue proliferation assay, MOLM-13; conditions: Homo sapiens, geometric mean relative IC50, 72 hours, read-out: IC50 range for cell line MOLM-13
Description: as §2

AML cell line THP-1 = test: CellTiter-Blue proliferation assay, THP-1; conditions: Homo sapiens, geometric mean relative IC50, 72 hours, read-out: IC50 range for cell line THP-1
Description: as §2

Q: Which results are given for `CC(C)(O)CCn1ncc(-c2onc(-c3c(F)cccc3Cl)c2-c2ncccn2)c1C(F)(F)F` [2/8]?
A: IC50 (IL-17F): < 25 nM; GI50 [1]: < 25 nM; GI50 [2]: ≥ 5000 nM; effect on growth of VCaP [2]: No effect; ATAD2/ANCCA mRNA expression (ATAD2/ANCCA mRNA): 0.817; IC50 (RORγt): 10 to 100 nM

Q: For `COC(=O)c1c(-c2c(F)cccc2Cl)noc1-c1cnn(-c2cccc(Cl)c2)c1C(F)(F)F` [Example 1, Methyl 3-(2-chloro-6-fluorophenyl)-5-(1-(3-chlorophenyl)-5-(trifluoromethyl)-1H-pyrazol-4-yl)isoxazole-4-carboxylate], which IC50 (IL-17F) is on record?
A: < 25 nM

Q: And the GI50 [1]?
A: < 25 nM

Q: And the GI50 [2]?
A: ≥ 5000 nM

Q: And the “effect on growth of VCaP” value [2]?
A: No effect

Q: And the IC50 (IM9 (MM))?
A: < 10 nM

Q: And the IC50 [3]?
A: 1 to 25 nM

Q: And the “in vitro anticancer activity (Z-score panel, words)” value [4]?
A: exhibits an in vitro anticancer activity towards a broad spectrum of therapeutic cancer indication

Q: What about the IC50 (AML cell line HL-60) of the same compound?
A: < 10 nM

Q: And the IC50 (AML cell line MOLM-13)?
A: < 10 nM

Q: What about the IC50 (AML cell line THP-1) of the same compound?
A: 10 to 100 nM

Q: What about the IC50 (RORγt) of the same compound?
A: < 10 nM

Q: Which IC50 (IL-17F) does the source give for `Fc1cccc(Cl)c1-c1noc(-c2cnn(-c3cccc(Cl)c3)c2C(F)(F)F)c1-c1nccs1` [Example 1/1] here?
A: < 25 nM

Q: What about the GI50 [1] of the same compound?
A: < 25 nM

Q: What about the GI50 [2] of the same compound?
A: ≥ 5000 nM

Q: What about the “effect on growth of VCaP” value [2] of the same compound?
A: No effect

Q: And the IC50 [3]?
A: 1 to 25 nM

Q: And the “in vitro anticancer activity (Z-score panel, words)” value [4]?
A: exhibits an in vitro anticancer activity towards a broad spectrum of therapeutic cancer indication

Q: What about the IC50 (AML cell line HL-60) of the same compound?
A: < 10 nM

Q: And the IC50 (AML cell line MOLM-13)?
A: < 10 nM

Q: What about the IC50 (AML cell line THP-1) of the same compound?
A: < 10 nM

Q: What about the IC50 (RORγt) of the same compound?
A: < 10 nM
